Experimental data as given in patent US20070049611A1, “Phosphodiesterase 4 inhibitors” (priority 2005, published 2007).

Tests used:
[1] = tested on: rats; experiment: Passive avoidance in rats, an in vivo test for learning and memory; details: rat, MK-801 0.1 mg/kg, 24 hours after electric shock, p<0.001
Protocol: The test was performed as previously described (Zhang, H.-T., Crissman, A. M., Dorairaj, N. R., Chandler, L. J., and O'Donnell, J. M., Neuropsychopharmacology, 2000, 23, 198-204.). The apparatus (Model E10-16SC, Coulboum Instruments, Allentown, Pa.) consisted of a two-compartment chamber with an illuminated compartment connected to a darkened compartment by a guillotine door. The floor of the darkened compartment consisted of stainless steel rods through which an electric foot-shock could be delivered from a constant current source. All experimental groups were first habituated to the apparatus the day before the start of the experiment. During the training, the rat (Male Spraque-Dawley (Harlan) weighing 250 to 350 g) was placed in the illuminated compartment facing away from the closed guillotine door for 1 minute before the door was raised. The latency for entering the darkened compartment was recorded. After the rat entered the darkened compartment, the door was closed and a 0.5 mA electric shock was administered for 3 seconds. […] The latency for entering the darkened compartment was recorded for up to 180 seconds, at which time the trial was terminated.
(§1) All data were analyzed by analyses of variance (ANOVA); individual comparisons were made using Kewman-Keuls tests. […]

[2] = tested on: rats; experiment: Radial arm maze task in rats, an in vivo test for learning and memory; details: rat, MK-801 0.1 mg/kg i.p., p<0.01
Protocol: The test was performed as previously described (Zhang, H.-T., Crissman, A. M., Dorairaj, N. R., Chandler, L. J., and O'Donnell, J. M., Neuropsychopharmacology, 2000, 23, 198-204.). Five days after initial housing, rats (male Spraque-Dawley (Harlan) weighing 250 to 350 g) were placed in the eight-arm radial maze (each arm was 60×10×12 cm high; the maze was elevated 70 cm above the floor) for acclimation for two days. Rats were then placed individually in the center of the maze for 5 minutes with food pellets placed close to the food wells, and then, the next day, in the wells at the end of the arms; 2 sessions a day were conducted. Next, four randomly selected arms were then baited with one pellet of food each. The rat was restricted to the center platform (26 cm in diameter) for 15 seconds and then allowed to move freely throughout the maze until it collected all pellets of food or 10 minutes passed, whichever came first.
Four parameters were recorded: 1) working memory errors, i.e., entries into baited arms that had already been visited during the same trial; 2) reference memory errors, i.e., entries into unbaited arms; 3) total arm entries; and 4) the test duration (seconds), i.e., the time spent in the collection of all the pellets in the maze. […]
as §1

## C[C@]12N[C@H](Cc3ccccc31)c1ccccc12 [MK-801]
[1]
  latency for entering the darkened compartment compared to the vehicle: markedly reduced this latency
[2]
  frequencies of working and reference memory errors compared to control: increased the frequencies of both working and reference memory errors
